“And” between values parts separate entries of the source, which are not always exact repeats. Identical values can stand only once.
How the values were obtained:
Assay type in all cases: biochemical
AKT-3 = AKT-3 (Homo sapiens, UniProt Q9Y243); test: AKT-3 inhibition assay (standard coupled enzyme assay); settings: 170 μM ATP, 200 μM peptide, 45 nM AKT, 30° C.
PDK-1 = molecular target: T1, PDK-1 (Homo sapiens, UniProt O15530); test: PDK-1 inhibition assay (radioactive-phosphate incorporation); settings: 40 μM ATP, 65 μM PDKtide, 25 nM PDK-1, 30° C.
T1 sequence (O15530 1-556): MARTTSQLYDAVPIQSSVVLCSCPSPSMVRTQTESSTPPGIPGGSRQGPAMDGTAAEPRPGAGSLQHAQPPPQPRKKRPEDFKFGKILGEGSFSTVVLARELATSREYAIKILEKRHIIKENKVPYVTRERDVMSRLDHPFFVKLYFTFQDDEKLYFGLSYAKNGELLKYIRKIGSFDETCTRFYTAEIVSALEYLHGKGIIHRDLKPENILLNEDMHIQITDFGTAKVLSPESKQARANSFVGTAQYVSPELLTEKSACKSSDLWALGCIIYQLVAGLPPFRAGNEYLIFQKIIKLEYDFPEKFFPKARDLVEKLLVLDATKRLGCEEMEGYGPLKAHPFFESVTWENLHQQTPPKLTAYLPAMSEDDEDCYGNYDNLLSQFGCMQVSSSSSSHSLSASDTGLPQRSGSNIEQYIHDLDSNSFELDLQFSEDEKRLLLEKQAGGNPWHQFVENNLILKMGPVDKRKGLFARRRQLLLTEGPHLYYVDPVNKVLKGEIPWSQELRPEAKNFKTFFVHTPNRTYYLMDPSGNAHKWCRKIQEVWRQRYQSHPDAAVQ

PKA = PKA (Homo sapiens, UniProt P17612); test: PKA inhibition assay (standard coupled enzyme assay); settings: 50 μM ATP, 80 μM Kemptide, 18 nM PKA, 30° C.
Summary of the method: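 Coupled PK/LDH assay (NADH read) with 18 nM PKA, 50 μM ATP and 80 μM Kemptide in 100 mM HEPES 7.5, 10 mM MgCl2, 3% DMSO at 30 °C. Compound dilutions (typically from 5 μM final) preincubated 10 min before ATP start; initial rates over 15 min gave IC50 and Ki by non-linear regression.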

Sequence of AKT-3 (Q9Y243 whole entry): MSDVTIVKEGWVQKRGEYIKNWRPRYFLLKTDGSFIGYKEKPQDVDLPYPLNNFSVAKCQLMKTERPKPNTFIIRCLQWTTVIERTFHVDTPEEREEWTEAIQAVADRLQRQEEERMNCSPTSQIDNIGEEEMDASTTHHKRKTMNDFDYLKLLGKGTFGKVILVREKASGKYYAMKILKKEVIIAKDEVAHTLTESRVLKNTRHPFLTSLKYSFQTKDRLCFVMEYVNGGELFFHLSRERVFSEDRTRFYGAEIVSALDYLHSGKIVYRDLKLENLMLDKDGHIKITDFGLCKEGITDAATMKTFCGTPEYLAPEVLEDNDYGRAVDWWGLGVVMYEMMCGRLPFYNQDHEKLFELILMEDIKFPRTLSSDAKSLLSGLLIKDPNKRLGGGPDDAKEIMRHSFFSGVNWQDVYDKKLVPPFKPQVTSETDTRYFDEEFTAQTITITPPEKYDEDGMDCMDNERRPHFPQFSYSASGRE

| Ki (AKT-3) [µM] | Ki (PDK-1) | Ki (PKA) [µM] | SMILES |
| --- | --- | --- | --- |
| < 1 | > 3 µM | < 1 | NCCC(C(=O)Nc1ccc2[nH]nc(NC(=O)c3cccc(OC(F)(F)F)c3)c2c1)c1ccc(Cl)c(Cl)c1 (stereo not drawn) [Compound I-204] |
| < 1 | < 1 µM | < 1 | CNc1ccc(C(=O)Nc2n[nH]c3ccc(NC(=O)C(CCN)c4ccc(Cl)c(Cl)c4)cc23)cc1 (stereo not drawn) [Compound I-206] |
| < 1 | < 1 µM | < 1 | CCNc1ccc(C(=O)Nc2n[nH]c3ccc(NC(=O)C(CCN)c4ccc(Cl)c(Cl)c4)cc23)cc1 (stereo not drawn) [Compound I-207] |
| < 1 | > 3 µM | < 1 | CN(C)CCC(C(=O)Nc1ccc2[nH]ncc2c1)c1ccc(Cl)c(Cl)c1 (stereo not drawn) [Compound I-226] |
| < 1 | > 3 µM | < 1 | CN(C)CC(C(=O)Nc1ccc2[nH]ncc2c1)c1ccc(Cl)c(Cl)c1 (stereo not drawn) [Compound I-227] |
| < 1 | < 1 µM | < 1 | NCC(C(=O)Nc1ccc2[nH]nc(-c3ccccc3)c2c1)c1ccc(Cl)c(Cl)c1 (stereo not drawn) [Compound I-231] |
| < 1 | > 3 µM | < 1 | N#Cc1cccc(Nc2n[nH]c3ccc(NC(=O)C(CN)c4ccc(Cl)c(Cl)c4)cc23)c1 (stereo not drawn) [Compound I-232] |
| < 1 | 1 to 3 µM and > 3 µM | < 1 | Cc1n[nH]c2ccc(NC(=O)C(CN)c3ccc(Cl)c(Cl)c3)cc12 (stereo not drawn) [Compound I-233] |
| < 1 | < 1 µM | < 1 | NCCC(C(=O)Nc1ccc2[nH]nc(-c3ccc(F)cc3)c2c1)c1ccc(Cl)c(Cl)c1 (stereo not drawn) [Compound I-234] |
| 1 to 10 | < 1 µM | < 1 | COC(=O)c1ccc(-c2n[nH]c3ccc(NC(=O)C(CCN)c4ccccc4)cc23)cc1 (stereo not drawn) [Compound I-235] |
| 1 to 10 | < 1 µM | < 1 | NCCC(C(=O)Nc1ccc2[nH]nc(-c3ccc(-c4ccccc4)cc3)c2c1)c1ccccc1 (stereo not drawn) [Compound I-236] |
| < 1 | < 1 µM | < 1 | NCC(C(=O)Nc1ccc2[nH]ncc2c1)c1ccc(Cl)cc1 (stereo not drawn) [Compound I-242] |
| < 1 | > 3 µM | < 1 | NC[C@@H](C(=O)Nc1ccc2[nH]ncc2c1)c1ccc(Cl)c(Cl)c1 [Compound I-247] |
| < 1 | < 1 µM | < 1 | NCCC(C(=O)Nc1ccc2[nH]ncc2c1)c1cccc(OCc2ccccc2)c1 (stereo not drawn) [Compound I-1006] |
| 1 to 10 | < 1 µM | < 1 | NCCC(C(=O)Nc1ccc2[nH]nc(-c3ccccc3)c2c1)c1ccccc1 (stereo not drawn) [Compound I-1028] |
| 1 to 10 | > 3 µM | < 1 | NCCC(C(=O)Nc1ccc2[nH]nc(Nc3cccc(F)c3)c2c1)c1ccccc1 (stereo not drawn) [Compound I-1039] |
| 1 to 10 | < 1 µM | < 1 | NCCC(C(=O)Nc1ccc2[nH]nc(NC(=O)c3ccco3)c2c1)c1ccccc1 (stereo not drawn) [Compound I-1041] |
| < 1 | < 1 µM | < 1 | NCCC(C(=O)Nc1ccc2[nH]nc(NC(=O)c3cccs3)c2c1)c1ccccc1 (stereo not drawn) [Compound I-1043] |
| < 1 | < 1 µM | < 1 | NCC[C@H](C(=O)Nc1ccc2[nH]nc(NC(=O)c3cccs3)c2c1)c1ccccc1 [Compound I-1044] |
| 10 to 20 | < 1 µM | 1 to 5 | NCC[C@H](C(=O)Nc1ccc2[nH]nc(-c3ccccc3)c2c1)c1ccccc1 [Compound I-1053] |

Source: US7041687B2, “Indazole compounds useful as protein kinase inhibitors” (Vertex Pharmaceuticals Incorporated, priority 2002, dated 2006)
